What was measured:
Format in all cases: in vivo
Kochia scoparia (KCHSC) [1] = test: B. Herbicidal post-emergence efficacy, KCHSC; settings: for Post-emergence efficacy against KCHSC in %: rated visually after about 3 weeks
Outline: (§1)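 Post-emergence foliar spray, at application rates of 1280 g/ha or less, on one-leaf-stage plants 2–3 weeks post-sowing, using aqueous WP or EC suspensions with 0.5% additive at 600 L/ha. Visual percent efficacy relative to untreated plants scored roughly 3 weeks later in the greenhouse.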

Poa annua (POAAN) [2] = test: A. Herbicidal pre-emergence efficacy, POAAN
Outline: (§2)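 Applied before emergence onto covering soil at rates of 1280 g/ha or less, using 600 L/ha spray water with 0.5% additive. Scoring: visual % efficacy after ~3 weeks, greenhouse.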

[3] = tested on: Amaranthus retroflexus (AMARE); test: B. Herbicidal post-emergence efficacy, AMARE
Outline: as §1

[4] = tested on: Matricaria inodora (MATIN); test: B. Herbicidal post-emergence efficacy, MATIN
Protocol: (§3) Seeds of mono- and dicotyledonous weed plants were placed in plastic pots in sandy loam soil (doubly sown with in each case one species of mono- or dicotyledonous weed plants per pot), covered with soil and cultivated in a greenhouse under controlled growth conditions. 2 to 3 weeks after sowing, the test plants were treated at the one-leaf stage. The compounds of the invention, formulated in the form of wettable powders (WP) or as emulsion concentrates (EC), were applied onto the green parts of the plants as aqueous suspension or emulsion with addition of 0.5% additive at a water application rate of 600 liters per hectare (converted). After the test plants had been kept in the greenhouse under optimum growth conditions for about 3 weeks, the activity of the preparations was rated visually in comparison to untreated controls.
(§4) For example, • 100% efficacy=plants have died, • 0% efficacy=like untreated control plants
(§5) Tables B1a to B12c below show the effects of selected inventive compounds of the general formula (I) according to table 1 on various harmful plants at an application rate corresponding to 1280 g/ha or less, which were obtained by the experimental procedure mentioned above.

Stellaria media (STEME) [5] = test: B. Herbicidal post-emergence efficacy, STEME
Outline: as §1

Kochia scoparia (KCHSC) [6] = test: A. Herbicidal pre-emergence efficacy, KCHSC; settings: pre-emergence
Outline: as §2

[7] = tested on: Digitaria sanguinalis (DIGSA); test: A. Herbicidal pre-emergence efficacy, DIGSA; settings: scored visually after about 3 weeks vs untreated controls
Outline: as §2

[8] = tested on: Echinochloa crus-galli (ECHCG); test: A. Herbicidal pre-emergence efficacy, ECHCG; settings: 1280 g/ha; scored visually after about 3 weeks vs untreated controls
Outline: as §2

Setaria viridis (SETVI) [9] = test: B. Herbicidal post-emergence efficacy, SETVI
Protocol: as §3, §4, §5

Stellaria media (STEME) [10] = test: A. Herbicidal pre-emergence efficacy, STEME
Outline: as §2

[11] = tested on: Matricaria inodora (MATIN); test: A. Herbicidal pre-emergence efficacy, MATIN
Outline: as §2

[12] = tested on: Abutilon theophrasti (ABUTH); test: B. Herbicidal post-emergence efficacy, ABUTH; settings: rated visually after about 3 weeks
Outline: as §1

[13] = tested on: Echinochloa crus-galli (ECHCG); test: B. Herbicidal post-emergence efficacy, ECHCG; settings: rated visually after about 3 weeks
Outline: as §1

Poa annua (POAAN) [14] = test: B. Herbicidal post-emergence efficacy, POAAN
Outline: as §1

Veronica persica (VERPE) [15] = test: B. Herbicidal post-emergence efficacy, VERPE
Outline: as §1

Setaria viridis (SETVI) [16] = test: A. Herbicidal pre-emergence efficacy, SETVI
Outline: as §2

[17] = tested on: Digitaria sanguinalis (DIGSA); test: B. Herbicidal post-emergence efficacy, DIGSA; settings: rated visually after about 3 weeks
Protocol: as §3, §4, §5

[18] = tested on: Alopecurus myosuroides (ALOMY); test: A. Herbicidal pre-emergence efficacy, ALOMY; settings: 1280 g/ha; scored visually after about 3 weeks vs untreated controls
Excerpt: Seeds of mono- and dicotyledonous weed plants were placed in plastic pots in sandy loam soil (doubly sown with one species each of mono- or dicotyledonous weed plants per pot) and covered with soil. The compounds of the invention, formulated in the form of wettable powders (WP) or as emulsion concentrates (EC), were then applied onto the surface of the covering soil as aqueous suspension or emulsion with addition of 0.5% additive at a water application rate of 600 liters per hectare (converted). After the treatment, the pots were placed in a greenhouse and kept under good growth conditions for the test plants. After about 3 weeks, the efficacy of the preparations was scored visually in comparison with untreated controls as percentages.
For example, • 100% efficacy=plants have died, • 0% efficacy=like untreated control plants.
Tables A1a to A12c below show the effects of selected compounds of the general formula (I) according to table 1 on various harmful plants at an application rate corresponding to 1280 g/ha or less, which were obtained by the experimental procedure mentioned above.

Veronica persica (VERPE) [19] = test: A. Herbicidal pre-emergence efficacy, VERPE
Outline: as §2

Lolium rigidum (LOLRI) = test: A. Herbicidal pre-emergence efficacy, LOLRI; settings: dosage 1280 g/ha
Outline: as §2

[20] = tested on: Abutilon theophrasti (ABUTH); test: A. Herbicidal pre-emergence efficacy, ABUTH; settings: scored visually after about 3 weeks vs untreated controls
Outline: as §2

[21] = tested on: Amaranthus retroflexus (AMARE); test: A. Herbicidal pre-emergence efficacy, AMARE
Outline: as §2

O=S(=O)(CC1CC1(Cl)Cl)Oc1c(F)cccc1Oc1ncc(Cl)cn1 (stereo not drawn) [Example I-57]
Post-emergence efficacy against KCHSC in % (Kochia scoparia (KCHSC) [1]; 80 g/ha): 90%
Post-emergence efficacy against KCHSC in % (Kochia scoparia (KCHSC) [1]; 320 g/ha): 90%
Post-emergence efficacy against KCHSC (Kochia scoparia (KCHSC) [1]; 1280 g/ha): 90%
Pre-emergence efficacy against POAAN (Poa annua (POAAN) [2]; dosage 320 g/ha): 100%
Pre-emergence efficacy against POAAN (Poa annua (POAAN) [2]; dosage 1280 g/ha): 100%
Post-emergence efficacy against AMARE ([3]; 80 g/ha): 90%
Post-emergence efficacy against AMARE ([3]; 320 g/ha): 90%
Post-emergence efficacy against AMARE ([3]; 1280 g/ha): 90%
Post-emergence efficacy against MATIN ([4]; 320 g/ha): 90%
Post-emergence efficacy against MATIN ([4]; 1280 g/ha): 90%
Post-emergence efficacy against STEME (Stellaria media (STEME) [5]; 80 g/ha): 90%
Post-emergence efficacy against STEME (Stellaria media (STEME) [5]; 320 g/ha): 90%
Post-emergence efficacy against STEME (Stellaria media (STEME) [5]; 1280 g/ha): 90%
Pre-emergence efficacy against KCHSC (Kochia scoparia (KCHSC) [6]; dosage 320 g/ha): 100%
Pre-emergence efficacy against KCHSC (Kochia scoparia (KCHSC) [6]; dosage 1280 g/ha): 100%
Pre-emergence efficacy against DIGSA ([7]; 80 g/ha): 90%
Pre-emergence efficacy against DIGSA ([7]; 320 g/ha): 100%
Pre-emergence efficacy against DIGSA ([7]; 1280 g/ha): 100%
Pre-emergence efficacy against ECHCG [8]: 100%
Post-emergence efficacy against SETVI (Setaria viridis (SETVI) [9]; 320 g/ha): 90%
Post-emergence efficacy against SETVI (Setaria viridis (SETVI) [9]; 1280 g/ha): 90%
Pre-emergence efficacy against STEME (Stellaria media (STEME) [10]; dosage 320 g/ha): 100%
Pre-emergence efficacy against STEME (Stellaria media (STEME) [10]; dosage 1280 g/ha): 100%
Pre-emergence efficacy against MATIN ([11]; 320 g/ha, scored visually after about 3 weeks vs untreated controls): 90%
Pre-emergence efficacy against MATIN ([11]; pre-emergence, dosage 1280 g/ha): 100%
Post-emergence efficacy against ABUTH in % ([12]; 80 g/ha): 90%
Post-emergence efficacy against ABUTH in % ([12]; 320 g/ha): 90%
Post-emergence efficacy against ABUTH in % ([12]; 1280 g/ha): 90%
Post-emergence efficacy against ECHCG in % ([13]; 320 g/ha): 90%
Post-emergence efficacy against ECHCG in % ([13]; 1280 g/ha): 90%
Post-emergence efficacy against POAAN (Poa annua (POAAN) [14]; 320 g/ha): 90%
Post-emergence efficacy against POAAN (Poa annua (POAAN) [14]; 1280 g/ha): 90%
Post-emergence efficacy against VERPE (Veronica persica (VERPE) [15]; 80 g/ha): 90%
Post-emergence efficacy against VERPE (Veronica persica (VERPE) [15]; 1280 g/ha): 90%
Pre-emergence efficacy against SETVI (Setaria viridis (SETVI) [16]; dosage 80 g/ha): 90%
Pre-emergence efficacy against SETVI (Setaria viridis (SETVI) [16]; dosage 320 g/ha): 100%
Pre-emergence efficacy against SETVI (Setaria viridis (SETVI) [16]; dosage 1280 g/ha): 100%
Post-emergence efficacy against DIGSA in % ([17]; 320 g/ha): 90%
Post-emergence efficacy against DIGSA in % ([17]; 1280 g/ha): 90%
Pre-emergence efficacy against ALOMY [18]: 100%
Pre-emergence efficacy against VERPE in % (Veronica persica (VERPE) [19]; 320 g/ha): 90%
Pre-emergence efficacy against VERPE in % (Veronica persica (VERPE) [19]; 1280 g/ha): 100%
Pre-emergence efficacy against LOLRI (Lolium rigidum (LOLRI)): 100%
Pre-emergence efficacy against ABUTH ([20]; 320 g/ha): 90%
Pre-emergence efficacy against ABUTH ([20]; 1280 g/ha): 100%
Pre-emergence efficacy against AMARE in % ([21]; 80 g/ha): 100%
Pre-emergence efficacy against AMARE in % ([21]; 320 g/ha): 100%
Pre-emergence efficacy against AMARE in % ([21]; 1280 g/ha): 100%

Reference: patent US20240174618A1, “SUBSTITUTED (2-HETEROARYLOXYPHENYL)SULFONATES, SALTS THEREOF AND THEIR USE AS HERBICIDAL AGENTS” (Bayer Aktiengesellschaft, priority 2021, published 2024)
